This passage reports apoptosis and cell death results from patent US5874235A, “Screening assays for cancer chemopreventative agents” (The Johns Hopkins University, priority 1997, dated 1999).

Like-named read-outs stand apart in the source and are kept apart here.

Assay [1] concerns SW480 cells. It is filed as cell-based, human. The procedure:
FIGS. 1A, 1B and 1C NSAID induce apoptosis in human colorectal cancer cells. In FIG. 1A, HCT116 and SW480 cells were treated with indomethacin (INDO) (300 μM) or SUS (125 μM for HCT116 and 200 μM for SW480 cells). Cells were collected at the indicated times, fixed and stained with Hoechst 33258 (23). The cells were counted and those with fragmented nuclei were scored as apoptotic. In FIG. 1B, HCT116 and SW480 cells were treated with SUS or INDO for 60 hours, harvested and stained as described above. Cells treated with SUS or INDO show the hallmarks of apoptosis.
This death appeared to be apoptotic, as it was accompanied by nuclear condensation and fragmentation (FIG. 1B) and exposure of phosphatidylserine groups on the cell surface, two hallmarks of apoptosis (11, 12).

Assay [2] deals with SW480 cells. Type of assay: cell-based, human. The settings on record: SUS 100 μM.

With `CSc1ccc(/C=C2/C(C)=C(CC(=O)O)c3cc(F)ccc32)cc1` [SUS, sulindac sulfide], the apoptosis result in the assay on SW480 cells [1] (200 μM SUS, 16 hours) is reported as “the majority of cells had not yet undergone apoptosis”; with SW480 cells [1] (SUS 200 μM, with or without 10 μM CHX, 48 hours), “underwent apoptosis”. Further, in the assay with SW480 cells [2], the cell death result is “not at 100 μM”.
